In ChEMBL document CHEMBL4354842, “A Series of Compounds Bearing a Dipyrido-Pyrimidine Scaffold Acting as Novel Human and Insect Pest Chitinase Inhibitors” (J Med Chem, 2020):
The source made the active and inactive calls. The rule behind the calls is not given here.

Legend:
[1] = target: T1, Chitinase B (Serratia marcescens) (UniProt P11797); test: Inhibition of Serratia marcescens chitinase b catalytic domain overexpressed in Escherichia coli BL21(DE3) cells at 1 uM using 4MU-(GlcNAc)2 as substrate after 30 mins by fluorescence based microplate reader analysis
T1 sequence (whole entry): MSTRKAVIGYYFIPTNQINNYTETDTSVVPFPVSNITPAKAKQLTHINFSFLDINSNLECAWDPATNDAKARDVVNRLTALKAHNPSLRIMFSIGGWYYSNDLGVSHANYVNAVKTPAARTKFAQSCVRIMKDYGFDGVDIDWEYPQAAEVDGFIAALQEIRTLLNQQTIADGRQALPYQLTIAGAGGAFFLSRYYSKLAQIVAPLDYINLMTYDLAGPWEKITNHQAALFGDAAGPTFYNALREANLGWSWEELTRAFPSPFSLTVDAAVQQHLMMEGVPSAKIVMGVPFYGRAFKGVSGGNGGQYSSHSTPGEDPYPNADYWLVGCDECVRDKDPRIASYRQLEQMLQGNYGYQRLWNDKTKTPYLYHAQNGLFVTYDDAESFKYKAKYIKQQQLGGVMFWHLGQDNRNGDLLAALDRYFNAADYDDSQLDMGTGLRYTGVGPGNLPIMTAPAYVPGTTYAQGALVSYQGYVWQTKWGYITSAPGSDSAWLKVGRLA

[2] = target: T2, Chitotriosidase-1 (Homo sapiens, UniProt Q13231); test: Inhibition of human CHIT1 catalytic domain overexpressed in Pichia pastoris at 10 uM using 4MU-(GlcNAc)2 as substrate after 30 mins by fluorescence based microplate reader analysis
Target sequence in this assay (Q13231 22-466 limits assumed): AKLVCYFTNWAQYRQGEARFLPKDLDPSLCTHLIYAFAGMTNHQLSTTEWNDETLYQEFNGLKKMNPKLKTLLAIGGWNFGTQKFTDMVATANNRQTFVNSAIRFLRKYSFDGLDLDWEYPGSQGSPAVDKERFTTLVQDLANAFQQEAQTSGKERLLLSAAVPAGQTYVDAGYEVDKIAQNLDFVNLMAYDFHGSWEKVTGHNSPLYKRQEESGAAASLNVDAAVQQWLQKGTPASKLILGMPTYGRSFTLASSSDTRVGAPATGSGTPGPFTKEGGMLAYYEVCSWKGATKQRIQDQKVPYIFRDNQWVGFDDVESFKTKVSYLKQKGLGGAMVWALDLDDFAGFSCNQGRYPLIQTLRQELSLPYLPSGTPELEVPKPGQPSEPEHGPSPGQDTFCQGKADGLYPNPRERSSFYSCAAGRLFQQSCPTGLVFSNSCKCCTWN

[3] = target: Chitinase (Ostrinia furnacalis) (UniProt Q4AE59); test: Inhibition of Ostrinia furnacalis chitinase h catalytic domain overexpressed in Pichia pastoris at 1 uM using 4MU-(GlcNAc)2 as substrate after 30 mins by fluorescence based microplate reader analysis
Chitinase (Ostrinia furnacalis), sequence (Q4AE59 as listed by the source): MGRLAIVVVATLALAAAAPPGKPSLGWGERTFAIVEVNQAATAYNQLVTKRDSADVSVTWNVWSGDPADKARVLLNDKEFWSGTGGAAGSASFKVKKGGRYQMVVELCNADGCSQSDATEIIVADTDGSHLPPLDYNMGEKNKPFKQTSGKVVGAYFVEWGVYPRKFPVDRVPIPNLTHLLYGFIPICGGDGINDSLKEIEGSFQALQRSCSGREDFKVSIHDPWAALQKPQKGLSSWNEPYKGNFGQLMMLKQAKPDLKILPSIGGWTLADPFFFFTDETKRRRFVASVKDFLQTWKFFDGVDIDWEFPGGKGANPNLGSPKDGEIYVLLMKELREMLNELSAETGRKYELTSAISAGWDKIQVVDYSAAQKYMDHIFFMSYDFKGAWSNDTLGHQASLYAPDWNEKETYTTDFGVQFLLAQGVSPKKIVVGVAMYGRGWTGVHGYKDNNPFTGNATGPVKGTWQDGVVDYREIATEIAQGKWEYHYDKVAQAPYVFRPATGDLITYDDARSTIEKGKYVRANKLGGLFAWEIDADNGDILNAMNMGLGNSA

[4] = target: T3, Acidic mammalian chitinase (Homo sapiens, UniProt Q9BZP6); test: Inhibition of human acidic mammalian chitinase catalytic domain overexpressed in Pichia pastoris at 10 uM using 4MU-(GlcNAc)2 as substrate after 30 mins by fluorescence based microplate reader analysis
Target sequence in this assay (Q9BZP6 22-476 limits assumed): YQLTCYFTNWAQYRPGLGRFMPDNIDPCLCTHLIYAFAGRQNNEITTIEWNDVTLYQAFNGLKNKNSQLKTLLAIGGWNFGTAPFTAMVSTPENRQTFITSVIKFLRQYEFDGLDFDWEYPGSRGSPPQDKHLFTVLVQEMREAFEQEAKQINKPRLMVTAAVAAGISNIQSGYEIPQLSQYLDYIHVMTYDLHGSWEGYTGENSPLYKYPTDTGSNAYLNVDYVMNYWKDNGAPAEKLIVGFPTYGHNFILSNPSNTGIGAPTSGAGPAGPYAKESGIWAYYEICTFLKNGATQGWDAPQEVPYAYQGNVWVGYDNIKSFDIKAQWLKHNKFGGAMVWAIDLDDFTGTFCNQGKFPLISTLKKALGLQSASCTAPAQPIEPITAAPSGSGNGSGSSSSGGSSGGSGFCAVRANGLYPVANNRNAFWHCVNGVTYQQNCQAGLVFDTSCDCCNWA

[5] = target: T2, Chitotriosidase-1; test: Inhibition of human CHIT1 catalytic domain overexpressed in Pichia pastoris at 50 uM using 4MU-(GlcNAc)2 as substrate after 30 mins by fluorescence based microplate reader analysis relative to control
Target sequence in this assay (Q13231 22-466 limits assumed): as the sequence (Q13231 22-466 limits assumed) above

[6] = test system: Mus musculus; test: Antifibrotic activity in bleomycin-induced C57BL/6 mouse model of pulmonary fibrosis assessed as effect on TGFbeta expression at 2 ug/mouse, ip administered for 11 days and measured on day 12 post treatment by RT-qPCR analysis; type: functional, organism-based
[7] = test system: Mus musculus; test: In vivo inhibition of human chitinase in C57BL/6 mouse assesed as reduction in bleomycin-induced chitinase level in BALF at 2 ug/mouse, ip administered for 11 days and measured on day 12 by necropsy analysis; type: functional
[8] = test system: Mus musculus; test: Antifibrotic activity in bleomycin-induced C57BL/6 mouse model of pulmonary fibrosis assessed as effect on Areg expression at 2 ug/mouse, ip administered for 11 days and measured on day 12 post treatment by RT-qPCR analysis; type: functional, organism-based
[9] = test system: Mus musculus; test: Antifibrotic activity in bleomycin-induced C57BL/6 mouse model of pulmonary fibrosis assessed as effect on IL5 expression at 2 ug/mouse, ip administered for 11 days and measured on day 12 post treatment by RT-qPCR analysis; type: functional, organism-based
[10] = test system: Mus musculus; test: Antifibrotic activity in bleomycin-induced C57BL/6 mouse model of pulmonary fibrosis assessed as effect on Chit1 expression at 2 ug/mouse, ip administered for 11 days and measured on day 12 post treatment by RT-qPCR analysis; type: functional, organism-based
[11] = target: Chitotriosidase-1 (Mus musculus) (UniProt Q9D7Q1); test: Inhibition of chitinase in mouse BALF at 1 ug using 4-MU-(GlcNAc)2 substrate as substrate after 15 mins relative to control
Chitotriosidase-1 (Mus musculus), sequence (Q9D7Q1 22-464 limits assumed): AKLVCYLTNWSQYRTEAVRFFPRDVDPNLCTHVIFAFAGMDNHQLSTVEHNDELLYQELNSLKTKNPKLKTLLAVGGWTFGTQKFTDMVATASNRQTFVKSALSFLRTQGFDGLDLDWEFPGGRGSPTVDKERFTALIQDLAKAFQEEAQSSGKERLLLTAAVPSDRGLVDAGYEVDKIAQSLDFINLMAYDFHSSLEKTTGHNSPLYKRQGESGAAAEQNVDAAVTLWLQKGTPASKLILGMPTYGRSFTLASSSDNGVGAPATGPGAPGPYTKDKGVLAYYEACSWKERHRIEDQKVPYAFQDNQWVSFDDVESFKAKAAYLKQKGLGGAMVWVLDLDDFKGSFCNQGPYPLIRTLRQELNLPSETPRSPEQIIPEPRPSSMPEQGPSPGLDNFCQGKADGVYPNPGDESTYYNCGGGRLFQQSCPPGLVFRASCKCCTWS

[12] = test system: Mus musculus; test: Antifibrotic activity in bleomycin-induced C57BL/6 mouse model of pulmonary fibrosis assessed as effect on IL33 expression at 2 ug/mouse, ip administered for 11 days and measured on day 12 post treatment by RT-qPCR analysis; type: functional, organism-based
[13] = target: Chitotriosidase-1 (Mus musculus) (UniProt Q9D7Q1); test: Inhibition of chitinase in mouse BALF at 40 ug using 4-MU-(GlcNAc)2 substrate as substrate after 15 mins relative to control
[14] = test system: Mus musculus; test: Antifibrotic activity in bleomycin-induced C57BL/6 mouse model of pulmonary fibrosis assessed as effect on IL13 expression at 2 ug/mouse, ip administered for 11 days and measured on day 12 post treatment by RT-qPCR analysis; type: functional, organism-based
[15] = test system: Mus musculus; test: Antifibrotic activity in bleomycin-induced C57BL/6 mouse model of pulmonary fibrosis assessed as increase in number of interstitial macrophages in lungs at 2 ug/mouse, ip administered for 11 days and measured on day 12 post treatment by flow cytometric analysis; type: functional, organism-based
[16] = test system: Mus musculus; test: Antifibrotic activity in bleomycin-induced C57BL/6 mouse model of pulmonary fibrosis assessed as increase in number of monocytes in lungs at 2 ug/mouse, ip administered for 11 days and measured on day 12 post treatment by flow cytometric analysis; type: functional, organism-based
[17] = test system: Mus musculus; test: Antifibrotic activity in bleomycin-induced C57BL/6 mouse model of pulmonary fibrosis assessed as increase in number of PDL2+ alveolar macrophages in lungs at 2 ug/mouse, ip administered for 11 days and measured on day 12 post treatment by flow cytometric analysis; type: functional, organism-based
[18] = target: 3',5'-cyclic-AMP phosphodiesterase 4D (Homo sapiens) (UniProt Q08499); test: Inhibition of PDE4D2 (unknown origin) at 10 uM relative to control
3',5'-cyclic-AMP phosphodiesterase 4D (Homo sapiens), sequence (Q08499 whole entry, the tested form may be a part): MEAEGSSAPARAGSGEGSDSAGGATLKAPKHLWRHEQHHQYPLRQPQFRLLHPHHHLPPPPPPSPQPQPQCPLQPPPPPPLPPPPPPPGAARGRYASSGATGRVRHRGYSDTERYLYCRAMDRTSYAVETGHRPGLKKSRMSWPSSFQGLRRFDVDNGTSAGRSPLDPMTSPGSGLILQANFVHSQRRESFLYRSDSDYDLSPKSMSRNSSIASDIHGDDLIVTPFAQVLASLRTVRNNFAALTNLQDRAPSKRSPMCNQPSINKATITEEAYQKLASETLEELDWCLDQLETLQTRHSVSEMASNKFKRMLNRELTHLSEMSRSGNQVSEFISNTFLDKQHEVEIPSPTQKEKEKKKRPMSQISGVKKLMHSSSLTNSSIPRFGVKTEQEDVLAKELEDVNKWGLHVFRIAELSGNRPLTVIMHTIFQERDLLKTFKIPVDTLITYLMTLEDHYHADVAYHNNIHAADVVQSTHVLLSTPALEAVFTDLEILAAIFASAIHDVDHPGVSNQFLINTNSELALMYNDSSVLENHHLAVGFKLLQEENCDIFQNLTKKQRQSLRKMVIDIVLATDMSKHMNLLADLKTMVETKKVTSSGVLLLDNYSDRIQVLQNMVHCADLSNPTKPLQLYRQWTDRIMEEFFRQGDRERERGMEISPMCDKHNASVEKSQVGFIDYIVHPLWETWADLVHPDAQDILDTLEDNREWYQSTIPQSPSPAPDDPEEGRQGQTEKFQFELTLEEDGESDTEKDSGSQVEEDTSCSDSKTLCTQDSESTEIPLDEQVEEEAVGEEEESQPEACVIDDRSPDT

[19] = target: T4, Chitinase B (Serratia marcescens, UniProt P11797); test: Inhibition of Serratia marcescens chitinase b catalytic domain overexpressed in Escherichia coli BL21(DE3) cells using 4MU-(GlcNAc)2 as substrate after 30 mins by fluorescence based microplate reader analysis
T4 sequence (P11797 whole entry): T1 sequence (whole entry)

[20] = target: Acidic mammalian chitinase (Mus musculus, UniProt Q91XA9); test: Inhibition of mouse acidic mammalian chitinase catalytic domain overexpressed in Pichia pastoris using 4MU-(GlcNAc)2 as substrate after 30 mins by fluorescence based microplate reader analysis
Acidic mammalian chitinase (Mus musculus, UniProt Q91XA9), sequence (Q91XA9 whole entry, the tested form may be a part): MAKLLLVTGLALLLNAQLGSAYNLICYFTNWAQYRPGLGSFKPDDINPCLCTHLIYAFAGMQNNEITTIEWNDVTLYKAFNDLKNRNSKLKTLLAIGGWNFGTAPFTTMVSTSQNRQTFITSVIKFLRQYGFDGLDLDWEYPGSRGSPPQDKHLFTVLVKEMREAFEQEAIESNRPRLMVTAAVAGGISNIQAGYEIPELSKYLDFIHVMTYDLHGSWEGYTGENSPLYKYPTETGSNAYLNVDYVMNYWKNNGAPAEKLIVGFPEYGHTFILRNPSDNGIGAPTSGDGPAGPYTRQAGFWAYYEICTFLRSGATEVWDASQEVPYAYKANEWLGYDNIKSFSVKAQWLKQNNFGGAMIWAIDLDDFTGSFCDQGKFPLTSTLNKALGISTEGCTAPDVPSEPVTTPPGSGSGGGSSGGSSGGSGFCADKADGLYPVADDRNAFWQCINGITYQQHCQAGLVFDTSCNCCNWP

[21] = target: T4, Chitinase B; test: Binding affinity to Serratia marcescens chitinase b catalytic domain overexpressed in Escherichia coli BL21(DE3) cells by isothermal titration calorimetry
[22] = target: T3, Acidic mammalian chitinase; test: Inhibition of human acidic mammalian chitinase catalytic domain overexpressed in Pichia pastoris using 4MU-(GlcNAc)2 as substrate after 30 mins by fluorescence based microplate reader analysis
Target sequence in this assay (Q9BZP6 whole entry, the tested form may be a part): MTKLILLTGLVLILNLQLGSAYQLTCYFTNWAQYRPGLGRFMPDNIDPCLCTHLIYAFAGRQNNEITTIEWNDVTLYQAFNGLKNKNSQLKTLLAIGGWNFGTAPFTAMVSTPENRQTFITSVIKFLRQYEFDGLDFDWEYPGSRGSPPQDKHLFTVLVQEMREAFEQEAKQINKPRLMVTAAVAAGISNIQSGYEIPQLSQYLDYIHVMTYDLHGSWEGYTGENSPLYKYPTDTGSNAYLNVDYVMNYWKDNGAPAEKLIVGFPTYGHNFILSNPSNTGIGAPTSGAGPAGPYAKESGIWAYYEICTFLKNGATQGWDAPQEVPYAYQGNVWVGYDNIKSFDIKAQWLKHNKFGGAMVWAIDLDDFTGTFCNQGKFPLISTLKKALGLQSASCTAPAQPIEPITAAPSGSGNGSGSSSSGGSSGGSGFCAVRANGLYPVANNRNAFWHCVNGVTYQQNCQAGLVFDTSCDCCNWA

[23] = target: T2, Chitotriosidase-1; test: Inhibition of human CHIT1 catalytic domain overexpressed in Pichia pastoris using 4MU-(GlcNAc)2 as substrate after 30 mins by fluorescence based microplate reader analysis
Target sequence in this assay (Q13231 whole entry, the tested form may be a part): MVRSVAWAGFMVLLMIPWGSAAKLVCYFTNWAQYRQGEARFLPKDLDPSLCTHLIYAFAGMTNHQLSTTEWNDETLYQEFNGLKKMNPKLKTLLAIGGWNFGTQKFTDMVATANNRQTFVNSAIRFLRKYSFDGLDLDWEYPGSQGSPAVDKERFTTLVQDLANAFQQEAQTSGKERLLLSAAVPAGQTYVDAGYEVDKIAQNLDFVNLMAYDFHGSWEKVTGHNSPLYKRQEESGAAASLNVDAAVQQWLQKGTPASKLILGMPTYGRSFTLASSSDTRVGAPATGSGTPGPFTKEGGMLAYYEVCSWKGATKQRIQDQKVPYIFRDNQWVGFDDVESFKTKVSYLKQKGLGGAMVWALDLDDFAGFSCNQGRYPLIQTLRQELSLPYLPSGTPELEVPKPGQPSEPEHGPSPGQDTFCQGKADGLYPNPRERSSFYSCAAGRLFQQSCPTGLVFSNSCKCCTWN

[24] = target: Chitotriosidase-1 (Mus musculus, UniProt Q9D7Q1); test: Inhibition of mouse CHIT1 catalytic domain overexpressed in Pichia pastoris using 4MU-(GlcNAc)2 as substrate after 30 mins by fluorescence based microplate reader analysis
Chitotriosidase-1 (Mus musculus, UniProt Q9D7Q1), sequence (Q9D7Q1 whole entry, the tested form may be a part): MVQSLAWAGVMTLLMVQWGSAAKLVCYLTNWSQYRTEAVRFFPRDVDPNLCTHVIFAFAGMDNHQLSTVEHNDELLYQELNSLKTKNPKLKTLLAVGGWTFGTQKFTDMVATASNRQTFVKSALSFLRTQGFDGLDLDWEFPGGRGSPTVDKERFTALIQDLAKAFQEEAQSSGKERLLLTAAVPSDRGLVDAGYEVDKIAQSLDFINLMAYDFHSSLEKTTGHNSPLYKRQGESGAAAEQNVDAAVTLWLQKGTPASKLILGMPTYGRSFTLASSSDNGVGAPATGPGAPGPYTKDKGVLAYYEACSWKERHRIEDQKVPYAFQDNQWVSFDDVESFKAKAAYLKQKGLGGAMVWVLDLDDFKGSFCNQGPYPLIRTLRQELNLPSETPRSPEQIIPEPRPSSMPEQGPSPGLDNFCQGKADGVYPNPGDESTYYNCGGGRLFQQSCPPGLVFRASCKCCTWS

[25] = target: T5, Chitinase (Ostrinia furnacalis, UniProt Q4AE59); test: Inhibition of Ostrinia furnacalis chitinase h catalytic domain overexpressed in Pichia pastoris using 4MU-(GlcNAc)2 as substrate after 30 mins by fluorescence based microplate reader analysis
T5 sequence (Q4AE59 whole entry, the tested form may be a part): as the sequence (Q4AE59 as listed by the source) above

[26] = target: T2, Chitotriosidase-1; test: Binding affinity to human CHIT1 catalytic domain overexpressed in Pichia pastoris assessed by isothermal titration calorimetry
Target sequence in this assay (Q13231 whole entry, the tested form may be a part): as the sequence (Q13231 whole entry, the tested form may be a part) above

[27] = target: T1, Chitinase B (Serratia marcescens); test: Binding affinity to Serratia marcescens chitinase b catalytic domain overexpressed in Escherichia coli BL21(DE3) cells assessed as association constant by isothermal titration calorimetry
[28] = target: T5, Chitinase; test: Binding affinity to Ostrinia furnacalis chitinase h catalytic domain overexpressed in Pichia pastoris by isothermal titration calorimetry
[29] = target: T2, Chitotriosidase-1; test: Binding affinity to human CHIT1 catalytic domain overexpressed in Pichia pastoris assessed as association constant by isothermal titration calorimetry
Target sequence in this assay (Q13231 22-466 limits assumed): as the sequence (Q13231 22-466 limits assumed) above

| inhibition [1] | inhibition [2] | inhibition [3] | inhibition [4] | SMILES | other results |
| --- | --- | --- | --- | --- | --- |
| inactive | inactive | inactive | inactive | COCCCn1c(=N)c(C(=O)NCc2cccnc2)cc2c(=O)n3ccccc3nc21 |  |
| Active | Active | Active | Active | C[C@@H](NC(=O)c1cc2c(=O)n3ccccc3nc2n(C[C@H]2CCCO2)c1=N)c1ccccc1 |  |
| Active | Active | Active | Active | Cc1cccn2c(=O)c3cc(C(=O)NCc4cccnc4)c(=N)n(Cc4ccc(F)cc4)c3nc12 |  |
| inactive | inactive | inactive | inactive | C=CCn1c(=N)c(C(=O)N2CCN(C)CC2)cc2c(=O)n3cccc(C)c3nc21 |  |
| inactive | inactive | inactive | inactive | Cc1cccn2c(=O)c3cc(C#N)c(=N)n(Cc4ccccc4)c3nc12 |  |
| inactive | inactive | inactive | inactive | CNC(=O)c1cc2c(=O)n3cc(C)ccc3nc2n(Cc2cccnc2)c1=N |  |
|  |  |  |  | N=c1c(C(=O)NCC2CCCO2)cc2c(=O)n3ccccc3nc2n1Cc1ccco1 (configuration not stated) | inhibition [5]: 100% |
| inactive | inactive | inactive | inactive | CCOC(=O)c1cc2c(=O)n3ccccc3nc2n(Cc2ccco2)c1=N |  |
| Active | Active | Active | Active | Cc1ccc2nc3c(cc(C(=O)NCc4cccnc4)c(=N)n3C[C@H]3CCCO3)c(=O)n2c1 |  |
| Active | Active | Active | Active | Cc1cccn2c(=O)c3cc(C(=O)NCc4cccnc4)c(=N)n(Cc4ccco4)c3nc12 |  |
| inactive | inactive | inactive | inactive | COCCCn1c(=N)c(C(=O)NCc2ccc(F)cc2)cc2c(=O)n3ccccc3nc21 |  |
| Active | Active | Active | Active | CC(NC(=O)c1cc2c(=O)n3ccccc3nc2n(Cc2ccccc2)c1=N)c1ccccc1 (configuration not stated) | Activity [6]: inactive; inhibition (INH) [7]: 100%; Activity [8]: inactive; Activity [9]: inactive; Activity [10]: inactive; inhibition [11]: 35%; Activity [12]: inactive; inhibition [13]: 55%; Activity [14]: Active; Activity [15]: Active; Activity [16]: Active; Activity [17]: Active; inhibition [18]: 87.8% |
| Active | Active | Active | Active | N=c1c(C(=O)NCc2cccnc2)cc2c(=O)n3ccccc3nc2n1Cc1ccccc1 |  |
| Active | Active | Active | Active | COCCCn1c(=N)c(C(=O)N[C@@H](C)c2ccccc2)cc2c(=O)n3ccccc3nc21 |  |
| inactive | inactive | inactive | inactive | COCCCn1c(=N)c(C(=O)NCc2ccc(OC)cc2)cc2c(=O)n3ccccc3nc21 |  |
| inactive | inactive | inactive | inactive | COCCn1c(=N)c(C(=O)NCCN2CCCCC2)cc2c(=O)n3ccccc3nc21 |  |
| Active | Active | Active | Active | Cc1cccn2c(=O)c3cc(C(=O)N[C@H](C)c4ccccc4)c(=N)n(C[C@H]4CCCO4)c3nc12 |  |
| inactive | inactive | inactive | inactive | COC(=O)c1cc2c(=O)n3ccccc3nc2n(Cc2cccnc2)c1=N |  |
| inactive | inactive | inactive | inactive | COCCCn1c(=N)c(C(=O)NCc2ccc(C)cc2)cc2c(=O)n3ccccc3nc21 |  |
| Active | Active | Active | Active | Cc1ccc2nc3c(cc(C(=O)N[C@H](C)c4ccccc4)c(=N)n3C[C@H]3CCCO3)c(=O)n2c1 |  |
| inactive | inactive | inactive | inactive | COCCCn1c(=N)c(-c2nc3ccccc3s2)cc2c(=O)n3ccccc3nc21 |  |
| inactive | inactive | inactive | inactive | N=c1c(C(=O)NC2CCCCC2)cc2c(=O)n3ccccc3nc2n1Cc1cccnc1 |  |
| inactive | inactive | inactive | inactive | Cc1cccn2c(=O)c3cc(C#N)c(=N)n(Cc4cccnc4)c3nc12 |  |

| SMILES | inhibition [1] | inhibition [2] | inhibition [3] | inhibition [4] | other results |
| --- | --- | --- | --- | --- | --- |
| Cc1cccn2c(=O)c3cc(C(=O)NCc4cccnc4)c(=N)n(CC4CCCO4)c3nc12 (configuration not stated) | Active | Active | Active | Active | Ki [19]: 0.058 µM; Ki [20]: 1.38 µM; Kd [21]: 0.19 µM; Ki [22]: 9.72 µM; Ki [23]: 1.12 µM; Ki [24]: 1.94 µM; Ki [25]: 0.009 µM; Kd [26]: 1.12 µM; Ka [27]: 5.1e+06 M⁻¹; Kd [28]: 0.085 µM; Ka [29]: 895000 M⁻¹ |
